This note sets out measurements from patent US20220409593A1 (ARKUDA THERAPEUTICS, priority 2019, published 2022).

The structures appear in SMILES notation. Where only a bound is given, the exact number is not on record here.

The test system of one assay is mouse BV2 cells. The experiment in a line: secretion of progranulin from mouse BV2 cells. Format: cell-based. The text has this: The compounds disclosed herein (e.g., compounds of Formula I, II, IIa, IIb, III, and as shown in Tables A and B) can increase the amount of progranulin or granulin in a subject. In some cases, the compounds increase the amount of progranulin in a subject. In some cases, the compounds increase the amount of granulin in a subject. In some cases, the compounds affect cells to increase secretion of progranulin. Solifenacin is a drug currently used for urinary incontinence. […] As such, the compounds disclosed herein, (e.g., compounds of Formula I, II, IIa, IIb, III, and as shown in Tables A and B) can be useful in treating disorders associated with aberrant (e.g., reduced) progranulin secretion or activity.

Another assay concerns secreted mouse PGRN. Kind of assay: progranulin induction cellular assay (PGRN assay, ELISA-based readout). Conditions: Mus musculus, progranulin secreted into cell culture medium, cells named in method: mouse primary microglia, primary cortical neurons, BV-2. On the procedure:
Cellular Assays: To measure the efficacy of compounds, a progranulin induction cellular assay in mouse primary microglia (pMG), primary cortical neurons, and BV-2 cell lines is used. BV-2 cells are split the day before plating into a 96well plate format at approximately 80%. Cells should be plated the day before and allowed for 1 hour attachment period and for 16 hour incubation. Levels of progranulin secreted into the cell culture medium or retained in the cell lysate can be quantified using an ELISA-based readout and measurement of secreted mouse PGRN in the medium was assessed by the methodology published by Ghidoni et al. 2012. Standard ELISA kits to measure PGRN are available from vendors such as Adipogen, R&D, and Biovendor.
Table D below presents the results of a PGRN assay as described above.

A word on the EC50: it is the concentration needed to bring the measured effect to its halfway point. Read a high EC50 as weaker potency.

On to `O=C(O[C@H]1CN2CCC1CC2)N1CCc2ccccc2[C@@H]1c1ccccc1` [Solifenacin], for which the secretion of progranulin entry in the assay with mouse BV2 cells is “causes the secretion of progranulin”.
`CN(C)[C@@H]1CC[C@]2(CN=C(N3CCc4ccccc4[C@@H]3c3ccc(F)cc3)O2)C1` (single isomer, unassigned) [Compound 3164] came in with an EC50 in the assay with secreted mouse PGRN of 0.137 µM.
On the same count and under the same terms, to `NC[C@H]1C[C@@]2(CN=C(N3CCc4ccccc4[C@@H]3c3ccc(F)cc3)O2)C1` (single isomer, unassigned) [Compound 3160] belongs 0.993 µM; to `CN(C)[C@H]1C[C@@]2(CN=C(N3CCc4ccccc4[C@@H]3c3ccc(F)cc3)O2)C1` (single isomer, unassigned) [Compound 3159], 0.209 µM.
Regarding `c1ccc([C@H]2c3ccccc3CCN2C2=NC[C@]3(CN4CCC3CC4)O2)cc1` (single isomer, unassigned) [Compound 3040], the EC50 in the assay on secreted mouse PGRN was 1.13 µM.
Compound `OCCN1CC[C@@]2(CN=C(N3CCc4ccccc4[C@@H]3c3ccc(F)cc3)O2)C1` [Compound 3175, 2-((S)-2-((S)-1-(4-fluorophenyl)-3,4-dihydroisoquinolin-2(1H)-yl)-1-oxa-3,7-diazaspiro[4.4]non-2-en-7-yl)ethan-1-ol] displayed an EC50 in the assay with secreted mouse PGRN of 0.181 µM.
In the assay on secreted mouse PGRN, `O[C@H]1CNC[C@]12CN=C(N1CCc3ccccc3[C@@H]1c1ccc(F)cc1)O2` [Compound 3177, (5S,9S)-2-((S)-1-(4-fluorophenyl)-3,4-dihydroisoquinolin-2(1H)-yl)-1-oxa-3,7-diazaspiro[4.4]non-2-en-9-ol] showed a half-maximal effective concentration (EC50) of 0.181 µM.
Compound `Fc1cc(F)cc([C@H]2c3ccccc3CCN2C2=NC[C@]3(CN4CCC3CC4)O2)c1` (stereo in doubt) [Compound 3037] came in with an EC50 with secreted mouse PGRN of 1 µM. Against the preceding compound, the EC50 is about 5.5-fold higher.
`Fc1cccc([C@@H]2c3ccccc3CCN2C2=NC[C@@]3(CN4CCC3CC4)O2)c1F` (single isomer, unassigned) [Compound 3018] came in with an EC50 in the assay with secreted mouse PGRN of over 10 µM.
In turn, `OCCCN1CC[C@@]2(CN=C(N3CCc4ccccc4[C@@H]3c3ccc(F)cc3)O2)C1` [Compound 3176, 3-((S)-2-((S)-1-(4-fluorophenyl)-3,4-dihydroisoquinolin-2(1H)-yl)-1-oxa-3,7-diazaspiro[4.4]non-2-en-7-yl)propan-1-ol] came in with an EC50 in the assay with secreted mouse PGRN of 0.318 µM.
Consider `CN1CCC[C@@H]([C@@H]2CN=C(N3CCc4ccccc4[C@@H]3c3ccc(F)cc3)O2)C1` (single isomer, unassigned) [Compound 3150], for which it took 0.266 µM to reach a half-maximal effect in the assay with secreted mouse PGRN (EC50).
Same read-out and setting: to `c1ccc([C@H]2c3ccccc3CCN2C2=NC[C@@]3(CCNC3)O2)cc1` (single isomer, unassigned) [Compound 3165] belongs 0.118 µM; to `Fc1ccc([C@H]2c3ccccc3CCN2C2=NCC([C@H]3CCNC3)O2)cc1` (single isomer, unassigned) [Compound 3064], 0.0847 µM; to `Fc1ccc([C@H]2c3ccccc3CCN2C2=NC[C@@]3(CN4CCC3CC4)O2)c(F)c1` (single isomer, unassigned) [Compound 3016], 0.86 µM.
With `Fc1ccc([C@H]2c3ccccc3CCN2C2=NC[C@H]([C@@H]3CCCNC3)O2)cc1` (single isomer, unassigned) [Compound 3075], a half-maximal effect with secreted mouse PGRN (EC50) was put at 0.222 µM. Compared with the last compound, the EC50 is about 3.9-fold lower.
Compound `Fc1ccc([C@H]2c3ccccc3CCN2C2=N[C@@]3(CO2)CN2CCC3CC2)cc1` (single isomer, unassigned) [Compound 3057B] returned an EC50 in the assay on secreted mouse PGRN of 0.126 µM.
In the assay with secreted mouse PGRN, `CN1CCC[C@H]([C@H]2CN=C(N3CCc4ccccc4[C@@H]3c3ccc(F)cc3)O2)C1` (single isomer, unassigned) [Compound 3153] came in with an EC50 of 0.94 µM. Against the preceding compound, the EC50 is about 7.5-fold higher.
`Fc1cccc([C@H]2c3ccccc3CCN2C2=NC[C@@]3(CN4CCC3CC4)O2)c1` (stereo in doubt) [Compound 3020]: a half-maximal response in the assay on secreted mouse PGRN (EC50) required 9.98 µM.
`N[C@H]1CC[C@@]2(CN=C(N3CCc4ccccc4[C@@H]3c3ccc(F)cc3)O2)C1` (single isomer, unassigned) [Compound 3080]: in the assay with secreted mouse PGRN, the concentration giving a half-maximal response (EC50) came to 0.11 µM. This EC50 is about 91-fold lower than that of the compound before.
Still for that read-out and setting: for `CN1CCCC2(CN=C(N3CCc4ccccc4[C@@H]3c3cccc(F)c3F)O2)C1` (mixture of isomers) [Compound 3042] the value was 1.03 µM.
For the compound `CN1CC[C@]2(CN=C(N3CCc4ccccc4[C@@H]3c3ccc(F)cc3)O2)C1` [Compound 3168, (R)-2-((S)-1-(4-fluorophenyl)-3,4-dihydroisoquinolin-2(1H)-yl)-7-methyl-1-oxa-3,7-diazaspiro[4.4]non-2-ene], in the assay with secreted mouse PGRN, the EC50 stood at 0.0687 µM.
On to `CN1CCC[C@@]2(CN=C(N3CCc4ccccc4[C@H]3c3ccc(F)c(F)c3)O2)C1` (stereo in doubt) [Compound 3032], for which, in the assay with secreted mouse PGRN, the EC50 is 3.43 µM.
Still for that read-out and setting: to `c1ccc([C@H]2c3ccccc3CCN2C2=NC[C@]3(CCNC3)O2)cc1` (single isomer, unassigned) [Compound 3166] belongs 0.163 µM.
